In data set [1] the test system is rat hepatocytes. In words: Hepatocyte assay to determine the metabolic stability. The class given is in vitro ADME. The conditions noted are these: after incubation with rat hepatocytes. How it is done:
B-6. Hepatocyte Assay to Determine the Metabolic Stability
The metabolic stability of test compounds in the presence of hepatocytes is determined by incubating the compounds with low concentrations (preferably below or around 1 μM) and with low cell counts (preferably 1*10^6 cells/ml) in order to ensure as far as possible linear kinetic conditions in the experiment. Seven samples of the incubation solution are taken in a fixed time pattern for the […] analysis in order to determine the half-life (i.e. the degradation) of the compound in each case. Various clearance parameters (CL) and Fmax values are calculated from this half-life (see below).
The Cl and Fmax values represent a measure of the phase 1 and phase 2 metabolism of the compounds in the hepatocytes. In order to minimize the influence of the organic solvent on the enzymes in the incubation mixtures, this concentration is generally limited to 1% (acetonitrile) or 0.1% (DMSO).
A cell count for hepatocytes in the liver of 1.1*10^8 cells/g of liver is used for calculation for all species and breeds.
The calculated parameters and their meaning are:
Representative values for the compounds according to the invention from this assay after incubation of the compounds with rat hepatocytes are shown in Table B below: […]

Data set [2] concerns the target human neutrophil elastase (HNE) (Homo sapiens (Human), UniProt P08246). In words: In vitro HNE inhibition assay. The class given is biochemical. The conditions noted are these: HNE concentration of 80 pM; substrate MeOSuc-Ala-Ala-Pro-Val-AMC; 37° C. for 2 hours. How it is done: B-1. In Vitro HNE Inhibition Assay
The potency of the compounds of the invention is ascertained in an in vitro inhibition assay. The HNE-mediated amidolytic cleavage of a suitable peptide substrate leads in this connection to an increase in the fluorescent light. The signal intensity of the fluorescent light is directly proportional to the enzyme activity.
Enzyme ([…]; from Serva, Heidelberg) and substrate (20 μM MeOSuc-Ala-Ala-Pro-Val-AMC; from Bachem, Weil am Rhein) are incubated in an assay volume of in total 50 μl of assay buffer (0.1 M HEPES pH 7.4, 0.5 M NaCl, 0.1% w/v BSA, 1% v/v DMSO) in a 384-well microtiter plate in the presence and absence of the test substance at 37° C. for 2 hours. […] The IC50 values are determined by plotting the intensity of the fluorescent light against the active substance concentration.

Sequence of human neutrophil elastase (HNE) (P08246 30-267): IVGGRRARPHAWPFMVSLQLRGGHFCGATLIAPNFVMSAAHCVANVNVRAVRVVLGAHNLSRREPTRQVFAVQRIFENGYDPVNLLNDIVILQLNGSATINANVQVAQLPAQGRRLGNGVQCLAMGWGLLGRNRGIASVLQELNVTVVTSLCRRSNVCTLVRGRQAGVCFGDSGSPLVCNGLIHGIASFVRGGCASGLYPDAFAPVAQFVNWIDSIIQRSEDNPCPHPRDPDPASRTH

As for `CN1CC2=C(C1=O)C(c1ccc(C#N)cc1S(C)(=O)=O)N(C(=O)NCCO)C(=O)N2c1cccc(C(F)(F)F)c1` (racemic) [Example 38, (rac)-4-[4-Cyano-2-(methylsulfonyl)phenyl]-N-(2-hydroxyethyl)-6-methyl-2,5-dioxo-1-[3-(trifluoromethyl)phenyl]-1,2,4,5,6,7-hexahydro-3H-pyrrolo[3,4-d]pyrimidine-3-carboxamide], in data set [1], the “CLblood, calculated blood clearance (well stirred model)” value (“CLblood, calculated blood clearance” below) was 0.2 L/h/kg and the “Fmax, maximum possible bioavailability after oral administration (well-stirred)” value (shortened to “Fmax, maximum possible bioavailability”) amounted to 96%. `CC1=C(C#N)C(c2ccc(C#N)cc2S(=O)(=O)CCO)NC(=O)N1c1cccc(C(F)(F)F)c1` (racemic) [Example 132, (rac)-4-[4-Cyano-2-((2-hydroxyethyl)sulfonyl)phenyl]-6-methyl-2-oxo-1-[3-(trifluoromethyl)phenyl]-1,2,3,4-tetrahydropyrimidine-5-carbonitrile]: in data set [2], the concentration for half-maximal inhibition (IC50) (as a rule, the concentration needed to halve the response being measured) worked out at 1.1 nM. Still for that read-out and setting: to `CC1=C(C#N)[C@@H](c2ccc(C#N)cc2S(C)(=O)=O)N(C(=O)OCc2ccccc2)C(=O)N1c1cccc(C(F)(F)F)c1` (stereo in doubt) [Example 120, Benzyl 5-cyano-6-[4-cyano-2-(methylsulfonyl)phenyl]-4-methyl-2-oxo-3-[3-(trifluoromethyl)phenyl]-3,6-dihydropyrimidine-1(2H)-carboxylate] belongs less than 0.3 nM; to `CC(=O)C1=C(C)N(c2cccc(C(F)(F)F)c2)C(=O)N[C@@H]1c1ccc(C#N)cc1S(C)(=O)=O` [Example 2, 4-{(4S)-5-Acetyl-6-methyl-2-oxo-1-[3-(trifluoromethyl)phenyl]-1,2,3,4-tetrahydropyrimidin-4-yl}-3-(methylsulfonyl)benzonitrile], 10 nM. As to `CC1=C(C(N)=O)[C@@H](c2ccc(C#N)cc2S(C)(=O)=O)NC(=O)N1c1cccc(C(F)(F)F)c1` [Example 5, (4S)-4-[4-Cyano-2-(methylsulfonyl)phenyl]-6-methyl-2-oxo-1-[3-(trifluoromethyl)phenyl]-1,2,3,4-tetrahydropyrimidine-5-carboxamide], in data set [1], the “CLblood, calculated blood clearance” value was 0.0 L/h/kg and the “Fmax, maximum possible bioavailability” value stood at 100%. For `CC1=C(C#N)[C@@H](c2ccc(C#N)cc2S(C)(=O)=O)NC(=O)N1c1cccc(C(F)(F)F)c1` [Example 6, (4S)-4-[4-Cyano-2-(methylsulfonyl)phenyl]-6-methyl-2-oxo-1-[3-(trifluoromethyl)phenyl]-1,2,3,4-tetrahydropyrimidine-5-carbonitrile], in that order: 0.2 L/h/kg and 96%. Molecule `CC1=C(C#N)[C@@H](c2ccc(C#N)cc2S(C)(=O)=O)N(C(=O)NCCOCCO)C(=O)N1c1cccc(C(F)(F)F)c1` [Example 14, (6S)-5-Cyano-6-[4-cyano-2-(methylsulfonyl)phenyl]-N-[2-(2-hydroxyethoxy)ethyl]-4-methyl-2-oxo-3-[3-(trifluoromethyl)phenyl]-3,6-dihydropyrimidine-1(2H)-carboxamide] registered an IC50 in data set [2] of less than 0.3 nM. In turn, `CC1=C(C#N)[C@@H](c2ccc(C#N)cc2S(C)(=O)=O)N(C(=O)N2CC[C@H](O)C2)C(=O)N1c1cccc(C(F)(F)F)c1` [Example 18, (4S)-4-[4-Cyano-2-(methylsulfonyl)phenyl]-3-{[(3S)-3-hydroxypyrrolidin-1-yl]carbonyl}-6-methyl-2-oxo-1-[3-(trifluoromethyl)phenyl]-1,2,3,4-tetrahydropyrimidine-5-carbonitrile] showed an IC50 in data set [2] of less than 0.3 nM. Turning to `CC1=C(C#N)[C@@H](c2ccc(C#N)cc2S(C)(=O)=O)N(CC(=O)N2CCNC(=O)C2)C(=O)N1c1cccc(C(F)(F)F)c1` [Example 25, (4S)-4-[4-Cyano-2-(methylsulfonyl)phenyl]-6-methyl-2-oxo-3-[2-oxo-2-(3-oxopiperazin-1-yl)ethyl]-1-[3-(trifluoromethyl)phenyl]-1,2,3,4-tetrahydropyrimidine-5-carbonitrile], in data set [1], the “CLblood, calculated blood clearance” value was 0.3 L/h/kg and the “Fmax, maximum possible bioavailability” value turned out to be 93%. The matching figures for `CC1=C(C#N)[C@@H](c2ccc(C#N)cc2S(C)(=O)=O)N(S(=O)(=O)c2ccccc2OC(F)(F)F)C(=O)N1c1cccc(C(F)(F)F)c1` [Example 29, (4S)-4-[4-Cyano-2-(methylsulfonyl)phenyl]-6-methyl-3-{[2-(trifluoromethoxy)phenyl]sulfonyl}-2-oxo-1-[3-(trifluoromethyl)phenyl]-1,2,3,4-tetrahydropyrimidine-5-carbonitrile]: 0.4 L/h/kg and 90%. `CCS(=O)(=O)N1C(=O)N(c2cccc(C(F)(F)F)c2)C(C)=C(C#N)[C@H]1c1ccc(C#N)cc1S(C)(=O)=O` [Example 31, (4S)-4-[4-Cyano-2-(methylsulfonyl)phenyl]-6-methyl-3-(ethylsulfonyl)-2-oxo-1-[3-(trifluoromethyl)phenyl]-1,2,3,4-tetrahydropyrimidine-5-carbonitrile]: in data set [1], the “CLblood, calculated blood clearance” value is 0.4 L/h/kg and the “Fmax, maximum possible bioavailability” value is recorded as 91%. The matching figures for `CC1=C(C#N)[C@@H](c2ccc(C#N)cc2S(C)(=O)=O)N(C)C(=O)N1c1cccc(C(F)(F)F)c1` [Example 33, (4S)-4-[4-Cyano-2-(methylsulfonyl)phenyl]-3,6-dimethyl-2-oxo-1-[3-(trifluoromethyl)phenyl]-1,2,3,4-tetrahydropyrimidine-5-carbonitrile]: 0.6 L/h/kg and 87%. For `CC1=C(C#N)[C@@H](c2ccc(C#N)cc2S(C)(=O)=O)N(S(=O)(=O)c2cn(C)c(C)n2)C(=O)N1c1cccc(C(F)(F)F)c1` [Example 92], in that order: 0.7 L/h/kg and 83%. The matching figures for `CC1=C(C#N)[C@@H](c2ccc(C#N)cc2S(C)(=O)=O)N(c2ccc(C#N)cc2)C(=O)N1c1cccc(C(F)(F)F)c1` [Example 117, (4S)-4-[4-Cyano-2-(methylsulfonyl)phenyl]-3-(4-cyanophenyl)-6-methyl-2-oxo-1-[3-(trifluoromethyl)phenyl]-1,2,3,4-tetrahydropyrimidine-5-carbonitrile]: 0.1 L/h/kg and 97%. On to `CC1=C(C#N)[C@@H](c2ccc(C#N)cc2S(C)(=O)=O)N(c2cccc(C(F)(F)F)c2)C(=O)N1c1cccc(C(F)(F)F)c1` [Example 118, (4S)-4-[4-Cyano-2-(methylsulfonyl)phenyl]-6-methyl-2-oxo-1,3-bis[3-(trifluoromethyl)phenyl]-1,2,3,4-tetrahydropyrimidine-5-carbonitrile], for which, in data set [1], the “CLblood, calculated blood clearance” value was 0.6 L/h/kg and the “Fmax, maximum possible bioavailability” value worked out at 86%.

Turning to `CN1CC2=C(C1=O)[C@@H](c1ccc(C#N)cc1S(C)(=O)=O)N(C)C(=O)N2c1cccc(C(F)(F)F)c1` [Example 123, 4-(4S)-3,6-Dimethyl-2,5-dioxo-1-[3-(trifluoromethyl)phenyl]-2,3,4,5,6,7-hexahydro-1 H-pyrrolo[3,4-d]pyrimidin-4-yl-3-(methylsulfonyl)benzonitrile], in data set [1], the “CLblood, calculated blood clearance” value was 1.0 L/h/kg and the “Fmax, maximum possible bioavailability” value was found to be 75%. For `CCS(=O)(=O)c1cc(C#N)ccc1[C@H]1NC(=O)N(c2cccc(C(F)(F)F)c2)C(C)=C1C#N` [Example 127, (4S)-4-[4-Cyano-2-(ethylsulfonyl)phenyl]-6-methyl-2-oxo-1-[3-(trifluoromethyl)phenyl]-1,2,3,4-tetrahydropyrimidine-5-carbonitrile], in that order: 0.2 L/h/kg and 94%. The matching figures for `CCS(=O)(=O)c1cc(C#N)ccc1[C@@H]1C(C#N)=C(C)N(c2cccc(C(F)(F)F)c2)C(=O)N1S(C)(=O)=O` [Example 129, (4S)-4-[4-Cyano-2-(ethylsulfonyl)phenyl]-6-methyl-3-(methylsulfonyl)-2-oxo-1-[3-(trifluoromethyl)phenyl]-1,2,3,4-tetrahydropyrimidine-5-carbonitrile]: 0.9 L/h/kg and 79%.

The values above are taken from patent US9174997B2, “4-(4-cyano-2-thioaryl)dihydropyrimidinones and use thereof” (Bayer Intellectual Property GmbH, priority 2007, dated 2015).
